Reference: patent publication US20250041377A1, “PHARMACEUTICAL USE” (ENLITISA (SHANGHAI) PHARMACEUTICAL CO., LTD., priority 2018, published 2025)
Where a SMILES comes first, the peptide text is derived from it. Where no end group is shown, it is not given here. [ ]: non-standard residue; d: D form. Dopa = N[C@@H](Cc1ccc(O)c(O)c1)C(=O)O; Hyp = O=C(O)[CH]1C[CH](O)CN1; 3Hyp = 3-hydroxyproline

Legend:
[1] = system: Hyp, VEGF and TGF-β1 in wound tissue; experiment: Acute wound model, ELISA of wound tissue; format: in vivo, C57BL/6 mice; conditions: for wound Hyp content (Mean): indicator of collagen regeneration; for TGF-β1 content (Mean): wound tissue
Source text: The model group was given same amount of normal saline. There were 8 mice in each group.
Samples were taken at Day 4 and Day 7 post-wound infliction. The mice were sacrificed and the wound tissue taken by the same biopsy punch used to create the wound. Then 5 mm of tissue was cut off from the center of the sample and was preserved in 10% neutral buffered formalin (Nanchang Rain Dew Experimental Equipment Co., Ltd., Nanchang, Hubei Province, China), and analyzed by histological embedding (HE) in paraffin wax, sectioning and staining.
The rest of the samples were stored at −80° C. for further analysis. Tissue was cut into small pieces and liquid nitrogen was added to increase brittleness. 9 mL of normal saline was added to 1 g of tissue, which was then ground using a Tissuelyser (Shanghai Jingxin Industrial Development Co., Ltd., Shanghai, China) at 55 Hz for 60 seconds, followed by centrifuging at 8000 rpm for 10 minutes at 4° C.
The supernatant was collected, and the extracted protein was used for ELISA analysis using standard ELISA test kits and an ELISA reader (SH-1000 Hitachi, Japan). Vascular endothelial growth factor (VEGF), transforming growth factor beta 1 (TGF-β1) and hydroxyproline (Hyp) were assayed. The ELISA kits were purchased from Beijing 4A Biotech Co., Ltd. (Beijing, China).

[2] = Stability in phosphate buffer at different pHs (colour, HPLC peak area, purity); format: physicochemical; parameters: key to change of colour: NO means no colour changed was observed; + means a slight colour change is observed; ++ means a significant colour change is observed; conditions: for stability (overall result): phosphate buffer pH 5.3, 7.2, 8.1, room temperature then 45° C., 6 days
Description: Stabilities of Compounds A and B (obtained as described in Examples 1 and 3 above) were tested as follows.
10 mg of the compounds were each dissolved in 1 mL of distilled water to make a stock solution with a concentration of 10 mg/mL. Then, 200 μL of the stock solutions were diluted with 20 mM phosphate buffer (PB; Sigma-Aldrich China) with different pHs as indicated in Table 8 below.
All of the samples above were filtered through a 0.22 μm membrane (SLGV033RS; Sigma-Aldrich China) to remove potential bacteria in the solution on a super-clean bench after being prepared.
All the samples above were stored at room temperature and, three days later, were transferred to a 45° C. oven after initial sample analysis by HPLC (Column: Angilent ZORBAX Eclipse XDB-C18 (4.6×250 mm; 5 μm) (SN: USNH008244); buffer: A: 0.1% TFA in Water; B: 0.1% TFA in ACN; gradient: 0-25 minutes: 5%-30% B; 25-30 min: 100% B; flow rate: 1 mL/min; detection wavelength: 220 nm; sample volume: 20 μL).
The stability of the above samples was studied by observing the change of colour (Table 9), HPLC peak areas (Table 10) and purity (Table 11). The pH values for all samples were measured as being stable during the testing period.

[3] = DPPH assay of antioxidant capacity; conditions: 200 μL peptide solution in 3.8 mL 0.06 mg/mL DPPH; 1.5 hours, room temperature, dark; absorbance 517 nm
Description: The antioxidant capacity of Compound B was determined using a 2,2-diphenyl-1-(2,4,6-trinitrophenyl) hydrazyl (DPPH) assay.
Compounds A and B were obtained as described in Example 3 above. The peptide powders were stored at −20° C. and dissolved in saline at concentrations as indicated below. DPPH was purchased from Sigma-Aldrich China, Shanghai. Other reagents employed and identified below were purchased from Shanghai Aladdin Bio-Chem Technology Co. Ltd., China.
The DPPH method is one of the most commonly used methods in determination of antioxidant capacity. DPPH is a stable, nitrogen-centred free radical with a dark purple solution and a maximum absorption peak at 517 nm. When a free radical scavenger is present in the reaction system, it can be paired with a single electron of DPPH., and the absorption peak at 517 nm is gradually dissipated.
The degree of colour change bears a stoichiometric relationship to the number of paired electrons. Thus, antioxidant activity can be measured according to the change of absorbance. The greater the inhibition rate, the stronger the antioxidant capacity. […]
200 μL of peptide solution was added to 3.8 mL of the DPPH solution. […] The absorbance at 517 nm was measured and was denoted as A1. The absorbance of the blank control sample was denoted as A0. Thus, the percentage of the […] is calculated as: Clearance rate (%)=[A0−A1]/A0×100

[4] = 20 mM phosphate buffer pH 5.3, Day 0
[5] = 20 mM phosphate buffer pH 7.2, Day 0
[6] = 20 mM phosphate buffer pH 8.1, Day 0
[7] = pH 5.3, Day 1, room temperature
[8] = pH 5.3, Day 3 (Transfer to 45° C.)
[9] = pH 7.2, Day 1, room temperature
[10] = pH 7.2, Day 3 (Transfer to 45° C.)
[11] = pH 8.1, Day 1, room temperature
[12] = pH 8.1, Day 3 (Transfer to 45° C.)

Compound: CC(N)C(=O)NC(CCCCN)C(=O)N1CCCC1C(=O)NC(CO)C(=O)NC(Cc1ccc(O)cc1)C(=O)N1CC(O)CC1C(=O)N1CC(O)CC1C(=O)NC(C(=O)NC(Cc1ccc(O)cc1)C(=O)NC(CCCCN)C(=O)O)C(C)O (stereo not drawn) [Compound B, Ala-Lys-Pro-Ser-Tyr-Hyp-Hyp-Thr-Tyr-Lys] (H-AKPSY[Hyp][Hyp]TYK-OH; configuration not given here)
- wound Hyp content (Mean) ([1]; Day 4): 2.039 µg/mg
- TGF-β1 content (Mean) ([1]; Day 4): 20571.8 pg/g
- wound Hyp content (Mean) ([1]; Day 7): 2.810 µg/mg
- TGF-β1 content (Mean) ([1]; Day 7): 18659.6 pg/g
- increase of VEGF production in the wounded tissue ([1]; in comparison with model group): about 56.7%
- HPLC peak area as area % of Day 0's result [2, 4]: 100%
- change of colour [2, 4]: NO
- purity (HPLC) in stability study [2, 4]: 99.2%
- change of colour [2, 5]: NO
- purity (HPLC) in stability study [2, 5]: 99.6%
- HPLC peak area as area % of Day 0's result [2, 6]: 100%
- change of colour [2, 6]: NO
- purity (HPLC) in stability study [2, 6]: 99.5%
- HPLC peak areas over time ([2]; at pH 7.2 and pH 8.1): decreased significantly
- HPLC peak area as area % of Day 0's result [2, 7]: 100.0%
- change of colour [2, 7]: NO
- purity (HPLC) in stability study [2, 7]: 99.2%
- HPLC peak area as area % of Day 0's result [2, 8]: 99.9%
- change of colour [2, 8]: NO
- purity (HPLC) in stability study [2, 8]: 98.4%
- HPLC peak area as area % of Day 0's result ([2]; pH 5.3, Day 6 (45° C.)): 102.4%
- change of colour ([2]; pH 5.3, Day 6 (45° C.)): NO
- purity (HPLC) in stability study ([2]; pH 5.3, Day 6 (45° C.)): 99.0%
- change of colour [2, 9]: NO
- purity (HPLC) in stability study [2, 9]: 99.3%
- HPLC peak area as area % of Day 0's result [2, 10]: 100%
- change of colour [2, 10]: NO
- purity (HPLC) in stability study [2, 10]: 98.7%
- HPLC peak area as area % of Day 0's result ([2]; pH 7.2, Day 6 (45° C.)): 100.6%
- change of colour ([2]; pH 7.2, Day 6 (45° C.)): NO
- purity (HPLC) in stability study ([2]; pH 7.2, Day 6 (45° C.)): 98.2%
- HPLC peak area as area % of Day 0's result [2, 11]: 98.9%
- change of colour [2, 11]: NO
- purity (HPLC) in stability study [2, 11]: 99.4%
- HPLC peak area as area % of Day 0's result [2, 12]: 99.2%
- change of colour [2, 12]: NO
- purity (HPLC) in stability study [2, 12]: 98.4%
- HPLC peak area as area % of Day 0's result ([2]; pH 8.1, Day 6 (45° C.)): 97.0%
- change of colour ([2]; pH 8.1, Day 6 (45° C.)): NO
- purity (HPLC) in stability study ([2]; pH 8.1, Day 6 (45° C.)): 96.4%
- stability (overall result) [2]: stable at all pH values
- HPLC peak areas over time ([2]; three samples, pH 5.3, 7.2, 8.1): almost unchanged
- DPPH clearance rate [3]: 8.9%

Compound: Ala-Lys-Pro-Ser-Tyr-Hyp-Hyp-Thr-DOPA-Lys (AKPSY[3Hyp][Hyp]T[Dopa]K; listed as Mytilus edulis) [Compound A]
- wound Hyp content (Mean) ([1]; Day 4): 3.676 µg/mg
- TGF-β1 content (Mean) ([1]; Day 4): 11866.2 pg/g
- wound Hyp content (Mean) ([1]; Day 7): 2.694 µg/mg
- TGF-β1 content (Mean) ([1]; Day 7): 18074.8 pg/g
- HPLC peak area as area % of Day 0's result [2, 4]: 100%
- change of colour [2, 4]: NO
- purity (HPLC) in stability study [2, 4]: 99.4%
- HPLC peak area as area % of Day 0's result [2, 5]: 100%
- change of colour [2, 5]: NO
- purity (HPLC) in stability study [2, 5]: 98.9%
- HPLC peak area as area % of Day 0's result [2, 6]: 100%
- change of colour [2, 6]: NO
- purity (HPLC) in stability study [2, 6]: 96.3%
- oxidation judged by HPLC purity ([2]; at pH 7.2 and pH 8.1): most of Compound A was oxidized
- HPLC peak area as area % of Day 0's result [2, 7]: 100.1%
- change of colour [2, 7]: NO
- purity (HPLC) in stability study [2, 7]: 99.2%
- HPLC peak area as area % of Day 0's result [2, 8]: 100.3%
- change of colour [2, 8]: NO
- purity (HPLC) in stability study [2, 8]: 99.4%
- HPLC peak area as area % of Day 0's result ([2]; pH 5.3, Day 6 (45° C.)): 99.6%
- change of colour ([2]; pH 5.3, Day 6 (45° C.)): NO
- purity (HPLC) in stability study ([2]; pH 5.3, Day 6 (45° C.)): 98.0%
- HPLC peak area as area % of Day 0's result [2, 9]: 89.0%
- change of colour [2, 9]: +
- purity (HPLC) in stability study [2, 9]: 92.1%
- HPLC peak area as area % of Day 0's result [2, 10]: 41.7%
- change of colour [2, 10]: +
- purity (HPLC) in stability study [2, 10]: 94.8%
- HPLC peak area as area % of Day 0's result ([2]; pH 7.2, Day 6 (45° C.)): 11.5%
- change of colour ([2]; pH 7.2, Day 6 (45° C.)): ++
- purity (HPLC) in stability study ([2]; pH 7.2, Day 6 (45° C.)): 13.8%
- HPLC peak area as area % of Day 0's result [2, 11]: 64.8%
- change of colour [2, 11]: ++
- purity (HPLC) in stability study [2, 11]: 61.0%
- HPLC peak area as area % of Day 0's result [2, 12]: 21.7%
- change of colour [2, 12]: ++
- purity (HPLC) in stability study [2, 12]: 52.5%
- HPLC peak area as area % of Day 0's result ([2]; pH 8.1, Day 6 (45° C.)): 3.8%
- change of colour ([2]; pH 8.1, Day 6 (45° C.)): ++
- purity (HPLC) in stability study ([2]; pH 8.1, Day 6 (45° C.)): 3.9%
- stability (overall result) [2]: stable only at pH 5.3
- DPPH clearance rate [3]: 52.11%
